Measured values published in paper PMC6435698, “Keggin-type polyoxotungstates as mushroom tyrosinase inhibitors - A speciation study” (Scientific Reports, 2019).
Read-outs that look alike come from different tables or passages of the source.

How the values were obtained:
[1] = molecular target: T1, abPPO4 (mushroom tyrosinase) (Agaricus bisporus, UniProt C7FF05); assay: dopachrome assay, inhibition of abPPO4 diphenolase activity; format: biochemical; settings: for α, inhibition parameter, from Lineweaver-Burk intercepts: [b] from Lineweaver-Burk intercepts; for inhibitory effect on abPPO4 activity (in words): activity plots; for Inhibition type: substrate L-DOPA; as to Ki [mM], from Dixon plots: L-DOPA 0.4–1.5 mM; as to Ki [mM], from Lineweaver-Burk slopes: L-DOPA 0.4–1.5 mM
T1 construct: glutathione-S-transferase (GST) (N, cleaved yes); made in house; host or cells: E. coli BL21(DE3)
T1 sequence (C7FF05 1-379 limits assumed): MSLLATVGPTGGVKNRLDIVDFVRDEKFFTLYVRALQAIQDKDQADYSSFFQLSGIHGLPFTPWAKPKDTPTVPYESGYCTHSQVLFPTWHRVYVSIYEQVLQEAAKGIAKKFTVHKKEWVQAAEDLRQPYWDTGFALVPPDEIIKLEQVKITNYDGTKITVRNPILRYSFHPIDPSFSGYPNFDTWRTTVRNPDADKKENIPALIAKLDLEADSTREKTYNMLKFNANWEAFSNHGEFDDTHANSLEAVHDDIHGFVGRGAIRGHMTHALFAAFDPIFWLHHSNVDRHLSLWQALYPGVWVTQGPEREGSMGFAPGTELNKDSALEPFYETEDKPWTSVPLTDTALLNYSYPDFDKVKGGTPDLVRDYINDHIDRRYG
Protocol: The detailed methodology applied for kinetic evaluation is presented in the SI.
For the activity plots shown here, the ratios of reaction rates v ([I] = 0] and vapp ([I] = 0.2–14 mM) were determined from UV absorption measurements at 475 nm using the dopachrome assay. Each reaction setup contained a fixed amount of enzyme (1 µg abPPO4) in 1 mL in a plastic cuvette and the reaction buffer was 50 mM Na-citrate pH 6.8. POT stock solutions were prepared in 20 mM concentration in reaction buffer and adjusted for pH 6.8 with NaOH, if necessary. The reaction rates were extracted from the obtained absorption curves as the slope of linear fits of the steepest curve sections close to the start of the reaction over a time-range of 30 s and were determined in triplicates. The relative enzymatic activity dependent on the inhibitor concentration was fitted to a suitable hyperbolic expression (see SI for details). […] The dopachrome assay was performed exactly as described in section 3.1.1. This time, the observed reaction velocities vapp (in µmol/min) were calculated from the extracted reaction rates (in 1/s) using the extinction coefficient of dopachrome ε = 3700 M^−1 cm^−1 [62]. The so obtained data was plotted according to Lineweaver-Burk, and the slopes and ordinate intercepts of these graphs were used to extract inhibition parameters.
(The kinetic models with according mathematical expressions applied in this study are based on Copeland’s guide for enzyme kinetics[28].)
The classical Michaelis-Menten equation[28] relates the velocity v of an enzymatic reaction to the applied substrate concentration [S]:
In this equation, the Michaelis constant KM represents the substrate concentration effecting the half-maximum reaction rate vmax.
For the reported inhibition studies, we chose an expanded version of this equation (1) which accounts for all possible inhibition mechanisms and combinations thereof[28]. In general, both […]
ݒ௠௔௫,௔௣௣ = ௩೘ೌೣଵା [಺] (2)
Herein, [I] refers to the inhibitor concentration, Ki is the inhibition constant measuring the […]
The three ideal inhibition types are reflected by three limiting conditions for α:
(A) 0 < α <<1: uncompetitive inhibition
(B) α = 1: non-competitive inhibition
(C) α >> 1: competitive inhibition
Therefore, values of α < 1 often correspond to mixed-type inhibition with contributions from uncompetitive and non-competitive inhibition modes.
Insertion of expressions (2) and (3) in equation (1) leads to the final mixed-type inhibition […]
The relative enzymatic activity upon inhibition can be expressed as the ratio of the observed reaction velocity v app to the non - inhibited reaction performance v through dividing equation […]
This corresponds to a normalization of the reaction rates with respect to the non - inhibited rate. As w e were interested in the dependence of the reaction velocity on the inhibitor concentration , the substrate concentration was fixed to 1 mM L - DOPA for all activity plots.
This led to a further simplification of equation ( 1 ) : […]
Equation (6) was used as the final curve fit expression for kinetic evaluation of those POM […]
K M was set to 26.1 mM as reported for ab PPO4 by
3.2 Determination of inhibition type
3.2. 1 Kinetic evaluation using Lineweaver - Burk plots […]
linear Lineweaver - Burk [ 29 ] extrapolations. The double - reciprocal plots of 1/ v app against 1/[S] yielded straight li nes that were fitted accordingly to the corresponding ly rearranged form of […]
For simplicity, the terms for the slope m and the ordinate shift t are co mbine d in constants in […]

[2] = speciation / hydrolytic stability of POTs at pH 6.8 by 183W NMR; format: physicochemical; settings: 183W NMR (and 31P, 27Al NMR), ca. 20 mM in 50 mM Na-citrate pH 6.8
Excerpt: ^183W NMR spectroscopy is the most widely applied and reliable technique for the structural characterization of POTs in solution as well as to monitor the progress of reaction. Hundreds of POM ^183W NMR spectra have been reported since the first ^183W NMR spectrum for [SiW11]^8− observed by Acerete et al. in[47]. The here-presented ^183W NMR analysis yielded a single signal for all intact [XW12]^n− structures (Figs 4A,D and S11–S14), reflecting the perfect tetrahedral symmetry of the Keggin α-isomer and clearly confirming the isomeric purity of the prepared POTs.
^183W NMR samples for all the POM compounds were prepared in high concentrations similar to the stock solutions used for kinetic experiments (usually about 20 mM) in 50 mM Na-citrate pH 6.8 if not stated otherwise. ^183W NMR spectra were recorded with a Bruker FT-NMR spectrometer Avance Neo 500 MHz in 10 mm tubes for a total experiment time of ca. 60 hours, using standard pulse programs at 20.836 MHz and a 63° flip angle with 1 s of relaxation delay; the temperature was kept at 25 °C. Chemical shifts were measured relative to external 1 M Na2WO4. For [PW12]^3−, [PW11]^7− and […], additional ^31P NMR spectra were taken, structures of [AlW12]^5−, [AlW11]^9− and [BeW12]^6− were confirmed by ^27Al NMR or ^9Be NMR spectroscopy, respectively. ^27Al, ^9Be and ^31P NMR spectra were recorded at 130.368, 70.273 and 202.53 MHz, respectively. Chemical shifts are given relative to Al(NO3)3, BeSO4 or 85% H3PO4.
In the ^183W NMR spectrum of [PW12]^3− at pH 6.8 (see Fig. 4E), the six most intense peaks can be assigned to six different symmetry-equivalent positions in [PW11]^7−[47],[49]. The less intense signals in the ^183W NMR spectrum can be attributed to other [PW12]^3− hydrolysis products[51] that have been identified in the ^31P NMR spectrum (Fig. S7B). […] Based on both spectra, it can be concluded that [PW11]^7− prevails in aqueous solution at pH 6.8. […] Assignment is complicated by the special pseudo-paramagnetic character of this cluster (see ^183W NMR analysis in Fig. S15, SI section 2.2.2.4).
In order to identify the tungstate species responsible for the inhibitory effect observed with the orthotungstate solution [WO4]^2−, ^183W NMR was performed in reaction buffer pH 6.8, which had to be readjusted by a few drops of 5 M HCl to compensate for the marked basicity of [WO4]^2−. […] The chemical shifts are in agreement with literature data[56]. […] The ^183W NMR spectra for the POT clusters with higher negative charges (see Figs S11–S14) show only one single signal, thereby confirming full structural integrity of the corresponding Keggin anions at pH 6.8. The lacunary cluster [AlW11]^9− evoked a rise in pH up to 8.5 upon dissolution in reaction buffer (pH 6.8) to reach a final concentration of 20 mM. […] In the [BeW12]^6− spectrum (Fig. S14), three additional signals at −147.6, −155.3 and −168.6 ppm can be seen, which were assigned to the β-Keggin isomer. The C3v symmetry of this isomer results in three shifts with intensity ratio 1:2:1, as previously observed for other β-isomers of Keggin structure. The β-isomer is commonly formed during any synthesis of Keggin clusters, but rearranged to the α-form during prolonged thermal reaction. Thus, the occurrence of the β-form in the present preparation can be ascribed to the reduced reaction time applied for the hydrothermal synthesis. […] The ^31P (cf. Fig. S8) and ^183W NMR (Fig. S15) spectra of [PW11Ni]^5− have a special character originating from the peculiar electronic configuration of Ni^2+ and were in general accordance with reference data[61]. In the presented ^183W NMR spectrum, signals from those W atoms in direct neighbourhood to the Ni^2+ center cannot be observed, which complicates unambiguous assignment to the desired substituted POT structure. However, the obtained results can be explained in the light of electronic effects. […]

[3] = system: Bacillus megaterium tyrosinase; parameters: method as in PMID 27725765; settings: substrate L-DOPA; cited from earlier work
mushroom tyrosinase = settings: substrate L-DOPA; cited from earlier work
[4] = expected from net charge; cited from earlier work
[5] = [a] from activity plot, 1 mM L-DOPA, 50 mM Na-citrate pH 6.8, 0–14 mM POT, read-out: Ki [mM], from activity plot
[6] = [a] from activity plot, 1 mM L-DOPA, pH 6.8
[7] = [b] from Lineweaver-Burk slopes, L-DOPA 0.4–[…], pH 6.8, read-out: Ki [mM], from Lineweaver-Burk slopes
[8] = [c] from Dixon plots, average intersection, L-DOPA 0.4–[…], pH 6.8, read-out: Ki [mM], from Dixon plots
[9] = [a] from activity plot, 1 mM L-DOPA, 50 mM Na-citrate pH 6.8, 0–14 mM POT

Row | Compound | Ki [1, 5] | α, inhibition parameter, from activity plot [1, 6] | α, inhibition parameter, from Lineweaver-Burk intercepts ([1]; pH 6.8) | inhibitory effect on abPPO4 activity (in words) ([1]; 1 mM L-DOPA, pH 6.8) | Inhibition type ([1]; pH 6.8) | structural integrity / hydrolysis at pH 6.8 [2] | Ki [mM], from activity plot [1, 9] | also measured
1 | K7[PW11O39] [[PW11]^7−] | 12 mM | 0.12 | 0.17 | inhibitory effect of intermediate capacity | Mixed-type |  |  | Ki [1, 7]: 9.9 mM; Ki [1, 8]: 9.9 mM
2 | Na9[AlW11O39] [[AlW11]^9−] |  | 0.12 | 0.31 | weak inhibitory capacity | Mixed-type | not stable |  | 
3 | O=[N+]([O-])[O-].O=[N+]([O-])[O-].[Ni+2] [Ni^2+, Ni(NO3)2, reference compound] |  |  |  | no inhibition effect | No inhibition |  | No inhibition | 
4 | K4[SiW12O40] [[SiW12]^4−] | 4.7 mM | 0.11 | 0.32 | most potent inhibitory effect | Mixed-type | partial hydrolysis |  | Ki [1, 7]: 3.8 mM; Ki [1, 8]: 5.6 mM
5 | K5[BW12O40] [[BW12]^5−] |  |  |  |  | No inhibition | retain full structural integrity | No inhibition | 
6 | O=c1cc(CO)occ1O [kojic acid] |  |  |  |  |  |  |  | inhibition mode [3]: mixed-type; inhibition mode (mushroom tyrosinase): competitive
7 | K8[SiW11O39] [[SiW11]^8−] |  |  |  | no enzymatic inhibition | No inhibition |  | No inhibition | inhibitory effect on abPPO4 activity (in words) ([1]; 1 mM L-DOPA, pH 6.8, listed as Hx[SiW11O39]^(8−x)−): ineffective
8 | Na5[AlW12O40] [[AlW12]^5−] |  |  |  |  | No inhibition | retain full structural integrity | No inhibition | 
9 | [Na+].[Na+].[O]=[W](=[O])([O-])[O-] [[WO4]^2−, Na2WO4, reference compound] | 20 mM | 0.14 | 0.03 |  | Mixed-type | no detectable residual free orthotungstate |  | Ki [1, 7]: 19 mM; Ki [1, 8]: 24.8 mM
10 | Na6[BeW12O40] [[BeW12]^6−] |  |  |  |  | No inhibition | retain full structural integrity | No inhibition | stability in aqueous buffers up to pH [4]: ≤ 9 pH
11 | [AlW11O39{Al(H2O)}]^6− | 54.1 mM |  |  | weak inhibition effects |  |  |  | 
12 | Na6[H2W12O40] [[H2W12]^6−] |  |  |  |  | No inhibition | retain full structural integrity | No inhibition | 
13 | Na3[PW12O40] [[PW12]^3−] |  | 0.13 | 0.20 | markedly lower inhibition capacity | Mixed-type | full hydrolysis |  | 
14 | H[W7O24]^5− [heptatungstate] |  |  |  | measurable inhibition effects |  |  |  | 
15 | K5[PW11O39{Ni(H2O)}] [[PW11Ni]^5−] | 9.7 mM | 0.12 | 0.20 | pronounced inhibition | Mixed-type |  |  | Ki [1, 7]: 14.3 mM; Ki [1, 8]: 15 mM
